Data: PubChem BioAssay (NCI)
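48-hour exposure; five concentrations; linearly interpolated endpoints. Abbreviation: GI50, concentration required for 50% inhibition of growth. TGI is the concentration that stops growth completely.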

What was measured:
Experiment in all cases: DTP human tumour cell line panel, 48 h
[1] = test system: KM12 colon
[2] = test system: DLD-1 colon
[3] = test system: MALME-3M melanoma
[4] = test system: SF-539 CNS
[5] = test system: SF-295 CNS
[6] = test system: HOP-62 NSCLC
[7] = test system: SK-OV-3 ovarian
[8] = test system: SK-MEL-2 melanoma
[9] = test system: OVCAR-3 ovarian
[10] = test system: HCC-2998 colon
[11] = test system: A498 renal
[12] = test system: DMS 114 small cell lung
[13] = test system: SNB-19 CNS
[14] = test system: HOP-18 NSCLC
[15] = test system: NCI-H522 lung
[16] = test system: TK-10 renal
[17] = test system: HOP-92 NSCLC
[18] = test system: SF-268 CNS
[19] = test system: OVCAR-8 ovarian
[20] = test system: UO-31 renal
[21] = test system: LOX IMVI melanoma
[22] = test system: HT29 colon
[23] = test system: ACHN renal
[24] = test system: SK-MEL-5 melanoma
[25] = test system: SNB-75 CNS
[26] = test system: OVCAR-4 ovarian
[27] = test system: LXFL 529 NSCLC
[28] = test system: NCI-H23 lung
[29] = test system: SN12C renal
[30] = test system: RXF-631 renal
[31] = test system: IGROV1 ovarian
[32] = test system: A549 NSCLC
[33] = test system: UACC-257 melanoma
[34] = test system: U251 CNS
[35] = test system: RXF 393 renal
[36] = test system: OVCAR-5 ovarian
[37] = test system: EKVX NSCLC
[38] = test system: M14 melanoma
[39] = test system: M19-MEL melanoma
[40] = test system: SW-620 colon
[41] = test system: XF 498 CNS
[42] = test system: SK-MEL-28 melanoma
[43] = test system: CAKI-1 renal
[44] = test system: SNB-78 CNS
[45] = test system: COLO 205 colon
[46] = test system: MOLT-4 leukemia
[47] = test system: DMS 273 small cell lung
[48] = test system: 786-0 renal
[49] = test system: KM20L2 colon
[50] = test system: NCI-H460 lung
[51] = test system: HCT-15 colon
[52] = test system: HCT-116 colon
[53] = test system: UACC-62 melanoma
[54] = test system: K-562 leukemia
[55] = test system: RPMI-8226 leukemia

CCC[CH2][Sn]1([CH2]CCC)[O]C(=O)C(C(C)C)N=Cc2ccccc2[O]1 (configuration not stated)
GI50 [1]: 648 nM | TGI [1]: 1980 nM | GI50 [2]: 499 nM | TGI [2]: > 100000 nM | GI50 [3]: 188 nM | TGI [3]: 456 nM | GI50 [4]: 878 nM | TGI [4]: > 100000 nM | GI50 [5]: 1040 nM | TGI [5]: 2290 nM | GI50 [6]: 3790 nM | TGI [6]: > 100000 nM | GI50 [7]: 520 nM | TGI [7]: 1630 nM | GI50 [8]: 195 nM | TGI [8]: 521 nM | GI50 [9]: 730 nM | TGI [9]: 1990 nM | GI50 [10]: 600 nM | TGI [10]: 1880 nM | GI50 [11]: 1080 nM | TGI [11]: > 100000 nM | GI50 [12]: 91.8 nM | TGI [12]: 229 nM | GI50 [13]: 214 nM | TGI [13]: 645 nM | GI50 [14]: 668 nM | TGI [14]: 1920 nM | GI50 [15]: 44.2 nM | TGI [15]: 168 nM | GI50 [16]: 272 nM | TGI [16]: 730 nM | GI50 [17]: 131 nM | TGI [17]: 442 nM | GI50 [18]: 182 nM | TGI [18]: 1010 nM | GI50 [19]: > 100000 nM | TGI [19]: > 100000 nM | GI50 [20]: 462 nM | TGI [20]: 1800 nM | GI50 [21]: 163 nM | TGI [21]: 401 nM | GI50 [22]: 907 nM | TGI [22]: 2210 nM | GI50 [23]: 274 nM | TGI [23]: 882 nM | GI50 [24]: 1070 nM | TGI [24]: > 100000 nM | GI50 [25]: 235 nM | TGI [25]: 776 nM | GI50 [26]: 836 nM | TGI [26]: 2070 nM | GI50 [27]: 61.7 nM | TGI [27]: 200 nM | GI50 [28]: 158 nM | TGI [28]: 534 nM | GI50 [29]: 288 nM | TGI [29]: 987 nM | GI50 [30]: 166 nM | TGI [30]: 308 nM | GI50 [31]: 2210 nM | TGI [31]: > 100000 nM | GI50 [32]: 1590 nM | TGI [32]: 3140 nM | GI50 [33]: 143 nM | TGI [33]: 343 nM | GI50 [34]: 228 nM | TGI [34]: 636 nM | GI50 [35]: 72.2 nM | TGI [35]: 219 nM | GI50 [36]: 1610 nM | TGI [36]: 2980 nM | GI50 [37]: 402 nM | TGI [37]: 1670 nM | GI50 [38]: 267 nM | TGI [38]: 939 nM | GI50 [39]: 232 nM | TGI [39]: 1080 nM | GI50 [40]: 158 nM | TGI [40]: 318 nM | GI50 [41]: > 100000 nM | TGI [41]: > 100000 nM | GI50 [42]: 235 nM | TGI [42]: 819 nM | GI50 [43]: 136 nM | TGI [43]: 470 nM | GI50 [44]: 227 nM | TGI [44]: 1230 nM | GI50 [45]: 213 nM | TGI [45]: 693 nM | GI50 [46]: 236 nM | TGI [46]: 1040 nM | GI50 [47]: 730 nM | TGI [47]: 2040 nM | GI50 [48]: 307 nM | TGI [48]: 1150 nM | GI50 [49]: 1040 nM | TGI [49]: 2220 nM | GI50 [50]: 1280 nM | TGI [50]: 2570 nM | GI50 [51]: 345 nM | TGI [51]: 1340 nM | GI50 [52]: 547 nM | TGI [52]: 1780 nM | GI50 [53]: 244 nM | TGI [53]: 693 nM | GI50 [54]: 171 nM | TGI [54]: 1040 nM

COc1ccc(C2C(C(=O)O)=C(CO)Oc3cc4c(cc32)OCO4)cc1 (configuration not stated)
TGI [2]: > 100000 nM | TGI [3]: > 100000 nM | TGI [5]: > 100000 nM | TGI [6]: > 100000 nM | TGI [7]: > 100000 nM | TGI [8]: > 100000 nM | TGI [9]: > 100000 nM | TGI [12]: > 100000 nM | TGI [13]: > 100000 nM | TGI [14]: > 100000 nM | TGI [16]: > 100000 nM | TGI [17]: > 100000 nM | TGI [19]: > 100000 nM | TGI [20]: > 100000 nM | TGI [21]: > 100000 nM | TGI [22]: > 100000 nM | TGI [55]: > 100000 nM | TGI [23]: > 100000 nM | TGI [24]: > 100000 nM | TGI [25]: > 100000 nM | TGI [26]: > 100000 nM | TGI [28]: > 100000 nM | TGI [29]: > 100000 nM | TGI [30]: > 100000 nM | TGI [31]: > 100000 nM | TGI [32]: > 100000 nM | TGI [33]: > 100000 nM | TGI [34]: > 100000 nM | TGI [35]: > 100000 nM | TGI [37]: > 100000 nM | TGI [38]: > 100000 nM | TGI [39]: > 100000 nM | TGI [40]: > 100000 nM | TGI [41]: > 100000 nM | TGI [42]: > 100000 nM | TGI [43]: > 100000 nM | TGI [44]: > 100000 nM | TGI [45]: > 100000 nM | TGI [47]: > 100000 nM | TGI [49]: > 100000 nM | TGI [50]: > 100000 nM | TGI [51]: > 100000 nM | TGI [52]: > 100000 nM | TGI [53]: > 100000 nM
